Data set [1] has as its system melanoma tumor gene signatures. As to the kind of experiment: NanoString nCounter gene expression of FFPE melanoma biopsies. It is filed as in vivo, human. From the text: FFPE gene expression analysis: For each gene biomarker, RNA was extracted from FFPE slides using Qiagen's AllPrep kit (Cat. 80234) and analyzed using NanoString nCounter platform with the PanCancer Immune probe set. Raw counts were normalized using the geometric mean of 30 housekeeping genes and the normalized data from both panels were merged and analyzed with nSolver software (Version 4.0).
Interferon gene signature was based on Ayers et al (JCI 2017) and calculated in the following manner. For each patient (pt) sample, the geometric mean was calculated from the normalized counts for six genes (IFN-γ, CXCL9, CXCL10, HLA-DRA, IDO1, STAT1) and then the mean was Log 10-transformed to generate the Gene Expression score. […] Gene scores were calculated for each patient sample from the geometric mean of normalized counts for IFN-gamma, CXCL9, CXCL10, HLA-DRA, IDO1, and STAT1. The mean was Log 10-transformed to generate the Gene Expression score.
The tumor inflammatory signature (TIS) was calculated from 18 genes by taking the Log 10 of the geometric mean of the normalized counts across each gene set to generate a “Gene signature score”. See, e.g., Righi E, Kashiwagi S, Yuan J, et al. “CXCL12/CXCR4 Blockade Induces Multimodal Antitumor Effects That Prolong Survival in an Immunocompetent Mouse Model of Ovarian Cancer,” Cancer Res. 2011; 71(16):5522-5534.
Raw counts were normalized using the geometric mean of housekeeping genes. The Interferon-gamma gene signature score was assessed by a procedure essentially as described in Ayers et al. (2017) J. Clin. Invest. 127:2930-2940.
To perform the CTL signature measurement, RNA was extracted from FFPE slides using Qiagen's AllPrep kit and analyzed using the NanoString nCounter platform with the PanCancer Immune probe set. Raw counts were normalized using the geometric mean of housekeeping genes. NanoString nCounter validation is described at Malkov et al. (2009) BMC Research Notes; 2:80; accessed Nov. 2, 2017 at https://bmcresnotes.biomedcentral.com/articles/10.1186/1756-0500-2-80; Waggott et al. (2012) Bioinformatics 28:1546-1548; see also nCounter® Analysis System User Manual (July 2015), published by NanoString Technologies®, Inc., accessed Nov. 2, 2017, at https://www.nanostring.com/application/files/7114/8942/6665/MAN-C0035-05_nCounter Analysis_System_GEN2.pdf.
For each gene biomarker, RNA was extracted from FFPE slides using Qiagen's AllPrep kit (Cat. 80234) and analyzed using NanoString nCounter platform with the PanCancer Immune probe set. Raw counts were normalized using the geometric mean of housekeeping genes, as described above.
Antigen Presentation/Processing Gene Signature was calculated by taking the geometric mean of the normalized counts for eighteen (18) genes (B2M, CD74, CTSL, CTSS, HLA-DMA, HLA-DMB, HLA-DOB, HLA-DPA1, HLA-DPB1, HLA-DQA1, HLA-DQB1, HLA-DRA, HLA-DRB1, HLA-DRB3, PSMB8, PSMB9, TAP1, and TAP2) and then Log 10-transforming the mean to generate the Gene Expression Score.
Tumor Inflammation Signature was calculated by taking the geometric mean of the normalized counts for eighteen (18) genes (CCL5, CD27, CD274, CD276, CD8A, CMKLR1, CXCL9, CXCR6, HLA-DQA1, HLA-DRB1, HLA-E, IDO1, LAG3, NKG7, PDCD1LG2, PSMB10, STAT1, and TIGIT) and then Log 10-transforming the mean to generate the Gene Expression Score.

For the next data set, the system named is melanoma tumor interface. The experiment in a line: Multiplex IHC and HALO count of CD8+ cells at the tumor interface. It is filed as in vivo, human. Here is the method: CD8-labeled cells within […] of the inside or outside of the tumor boundary with normal tissue were counted. The number of CD8^+ cells/mm^2 was plotted against distance from the boundary in […] bands.

Setting [2] is: pre- vs post-dosing, five patients.
Where [3] appears, read: pre- vs post-dosing, patients 2, 3, 5, 8, and 9.

Each structure is given as a SMILES string.

In the case of `NCCCCN(Cc1nc2ccccc2[nH]1)[C@H]1CCCc2cccnc21` [X4P-001], in data set [1] (NanoString nCounter), the CD8A expression result is “increased”. The CD8B expression entry in data set [1] (NanoString nCounter) is “increased”. Besides, in data set [1] (NanoString nCounter), the “granzyme B expression” value is on record as “increased”. Besides, the “Tumor Inflammation Signature Gene Expression Score, Post-X4P-001 Score” value came out at 2.225 in data set [1] (Patient 2, Pre-Dose Score 2.123, Log 10 of geometric mean of 18 genes); 2.798 in data set [1] (Patient 3, Pre-Dose Score 2.647); 3.257 in data set [1] (Patient 5, Pre-Dose Score 2.871); 2.834 in data set [1] (Patient 8, Pre-Dose Score 2.508); 2.597 in data set [1] (Patient 9, Pre-Dose Score 2.233). Besides, the “Antigen Presentation/Processing Gene Expression Score, Post-X4P-001 Score” value stood at 2.986 in data set [1] (Patient 2, Pre-Dose Score 2.94, Log 10 of geometric mean of 18 genes); 3.324 in data set [1] (Patient 3, Pre-Dose Score 3.139); 3.806 in data set [1] (Patient 5, Pre-Dose Score 3.519); 3.518 in data set [1] (Patient 8, Pre-Dose Score 3.134); 3.495 in data set [1] (Patient 9, Pre-Dose Score 3.082). The “cytotoxic T lymphocyte (CTL) gene signature gene expression score” value in data set [1] (setting [2]) was “increased for each one of the five patients”. Besides, in data set [1] (setting [2]), the “interferon gamma (IFN-γ) gene signature Gene Expression Score” value is reported as “increased for each one of the five patients”. Besides, the “Antigen Presentation/Processing Gene Expression Score, change” value in data set [1] (setting [3]) is given as “increased for each patient”. Further, the “Tumor Inflammation Signature Gene Expression Score, change” value in data set [1] (setting [3]) is “increased for each patient”. Besides, the “CD8 Avg. Density” value in the data set with melanoma tumor interface (Week 4, Day 1 380.0449) is on record as 1550.5403 cells/mm^2. For the same compound, in the data set on melanoma tumor interface (Week 4, Day 1 5233), the “CD8 Within Interface Area” value was determined as 7557. In the data set on melanoma tumor interface (Week 4, Day 1 8924), the “CD8 Count” value worked out at 25894. Besides, the “total density of CD8+ cells within the boundary area compared with baseline” value in the data set on melanoma tumor interface (after 3 weeks of monotherapy, within 100 μM of tumor boundary) is recorded as “increased four-fold”.
